Like-named read-outs stand apart in the source and are kept apart here.
How the values were obtained:
[1] = Plasma free fraction (fu) and unbound Cmax (Cmax,u); type: in vitro ADME, human; conditions: unbound plasma Cmax
Procedure: The prediction of DILI severity was evaluated further using the 3D combined HCI assays using plasma-free fraction. The majority of fu values were obtained from literature, when unavailable in-house prediction was utilised. Unbound plasma Cmax concentrations (Cmax,u) were derived by multiplying total plasma Cmax with the corresponding free fraction (fu) for each compound.

[2] = cited from earlier work; for DILI severity category (Chen 2016): human DILI classification, LTKB DILIrank
[3] = test system: primary human hepatocytes, NIH3T3 fibroblasts, BSEP, CYP3A4; conditions: cited from earlier work
HepG2 cells [4] = conditions: cited from earlier work
HepG2 cells [5] = conditions: cited from earlier work; remark: listed apart in the source
human hepatocytes = conditions: cited from earlier work
PHH = conditions: cited from earlier work
hLiMTs [6] = conditions: cited from earlier work
[7] = test system: HepG2 C3A spheroid, BSEP, Glu/Gal in HepG2 cells, bioactivation; conditions: cited from earlier work
[8] = read-out: Human plasma Cmax; total plasma Cmax.tot, median of 9 literature references; cited from earlier work
[9] = plasma free fraction; cited from earlier work
[10] = cited from earlier work
[11] = test system: THLE-Null and THLE-3A4 cells; conditions: In vitro Assay; ref Gustafsson 2014; cited from earlier work
[12] = test system: HepG2 cells, primary human hepatocytes; conditions: In vitro Assay; ref Garside 2014; cited from earlier work
[13] = ref Chen 2011; cited from earlier work
rBsep = conditions: In vitro Assay; ref Dawson 2012; cited from earlier work
hLiMTs [14] = assay: Combined HCI (HCS) and cellular ATP 3D assay in hLiMTs; conditions: for AC50 / minimal effective concentration: Homo sapiens
HepaRG spheroids = assay: Combined HCI (HCS) and cellular ATP 3D assay in HepaRG spheroids; conditions: for AC50 / minimal effective concentration: Homo sapiens
[15] = In vitro Assay, ref Schadt 2015
[16] = In vitro Assay, ref Persson 2013
[17] = In vitro Assay, ref Proctor 2017
[18] = Microtissue model structural based (HCI), combined HCS and ATP, MEC < 25 × Cmax.tot cut-off

Question: For CCc1ccc(CCOc2ccc(CC3SC(=O)NC3=O)cc2)nc1 (stereo not shown) [pioglitazone, reference compound], which “Human plasma Cmax,u” value [1] is on record?
Answer: 29 nM

Question: And the “DILI severity category (Chen et al. [2016])” value ([2]; LTKB DILIrank category, ref Chen et al. 2016)?
Answer: Less

Question: What about the “DILI severity category (Chen 2016)” value ([2]; ref Chen et al. 2016) of the same compound?
Answer: Less

Question: What about the “DILI severity category (Chen 2016)” value ([2]; ref Chen et al. 2016, listed as Pioglitazone) of the same compound?
Answer: Less DILI severity

Question: What about the DILI severity category ([2]; human DILI severity, ref Chen et al.) of the same compound?
Answer: Less

Question: And the “DILI +VE (5-8), DILI -VE (-4)” value ([2]; ref Chen 2016)?
Answer: +VE

Question: What about the DILI severity category ([2]; ref Chen 2016) of the same compound?
Answer: vLess-DILI-Concern

Question: And the “DILI in vitro assay prediction, Schadt (2015)” value ([3]; BSEP & Metabolism based, ref Schadt et al. 2015)?
Answer: +VE

Question: What about the “Cellular toxicity (3T3 cells)” value [3, 15] of the same compound?
Answer: -VE

Question: What about the “Combined Assay” value [3, 15] of the same compound?
Answer: +VE

Question: What about the “GSH adduct HML” value [3, 15] of the same compound?
Answer: -VE

Question: What about the Hepatocyte cellular toxicity [3, 15] of the same compound?
Answer: +VE

Question: And the “MitoTox 3T3” value [3, 15]?
Answer: -VE

Question: And the “TDI CYP3A4” value [3, 15]?
Answer: -VE

Question: What about the hBSEP inhibition [3, 15] of the same compound?
Answer: +VE

Question: What about the “Structural based (HCI)” value (HepG2 cells [4]; In vitro Assay, ref O'Brien 2006) of the same compound?
Answer: +VE

Question: What about the “DILI in vitro assay prediction, O'Brien (2006)” value (HepG2 cells [4]; Structural based (HCI), HepG2, ref O'Brien et al. 2006) of the same compound?
Answer: -VE

Question: And the Cluser analysis (HepG2 cells [5]; [16])?
Answer: -VE

Question: What about the “Structural based (HCI)” value (HepG2 cells [5]; [16]) of the same compound?
Answer: +VE

Question: And the “DILI in vitro assay prediction, Persson (2013)” value (HepG2 cells [5]; Structural based (HCI), HepG2, ref Persson et al. 2013)?
Answer: -VE

Question: What about the “Structural based (HCI)” value (human hepatocytes; In vitro Assay, ref Xu 2008) of the same compound?
Answer: -VE

Question: What about the “DILI in vitro assay prediction, Xu (2008)” value (human hepatocytes; Structural based (HCI), human hepatocytes, ref Xu et al. 2008) of the same compound?
Answer: -VE

Question: And the “PHH/100xCmax, Proctor (2017)” value (PHH; 2D PHH, ATP, IC50 < 100 × Cmax.tot, ref Proctor et al. 2017)?
Answer: -VE

Question: And the “PHH/100uM, Proctor (2017)” value (PHH; 2D PHH, ATP, IC50 threshold 100 µM, ref Proctor et al. 2017)?
Answer: -VE

Question: What about the “PHH ATP <100uM” value (PHH; [17]) of the same compound?
Answer: -VE

Question: And the “hLiMTs ATP <100uM” value (hLiMTs [6]; [17])?
Answer: -VE

Question: What about the “hLiMTs/100xCmax, Proctor (2017)” value (hLiMTs [6]; hLiMTs, ATP, IC50 < 100 × Cmax.tot, ref Proctor et al. 2017) of the same compound?
Answer: -VE

Question: What about the “hLiMTs/100uM, Proctor (2017)” value (hLiMTs [6]; hLiMTs, ATP, IC50 threshold 100 µM, ref Proctor et al. 2017) of the same compound?
Answer: -VE

Question: What about the “Bayesian Machine Learning DILI prediction, Williams (2019)” value ([7]; Bayesian modeling, ref Williams et al. 2019) of the same compound?
Answer: +VE

Question: What about the “Bayesian Machine Learning” value ([7]; In vitro Assay, ref Williams 2019) of the same compound?
Answer: +VE

Question: What about the Cmax [8] of the same compound?
Answer: 2950 nM

Question: And the fu [9]?
Answer: 0.010

Question: And the “Assigned DILI category” value ([10]; Chen et al. 2016 or literature alignment, ref Chen et al. 2016)?
Answer: 2

Question: What about the “In vivo DILI” value ([10]; […]) of the same compound?
Answer: -VE

Question: And the “In vivo DILI” value ([10]; ref Dawson 2012)?
Answer: +VE

Question: And the “In vivo DILI” value ([10]; ref Garside 2014)?
Answer: +VE

Question: What about the “in vivo DILI categorisation in the literature” value ([10]; ref Garside et al. 2014, Proctor et al. 2017, Gustafsson et al. 2014) of the same compound?
Answer: in vivo DILI positive

Question: What about the “In vivo DILI” value ([10]; ref Gustafsson 2014) of the same compound?
Answer: +VE

Question: What about the “In vivo DILI” value ([10]; ref O'Brien 2006) of the same compound?
Answer: -VE

Question: And the “in vivo DILI categorisation in the literature” value ([10]; ref O'Brien et al. 2006, Xu et al. 2008, Dawson et al. 2012, Persson et al. 2013)?
Answer: non-DILI potential

Question: And the “In vivo DILI” value ([10]; ref Persson 2013)?
Answer: -VE

Question: And the “In vivo DILI” value ([10]; ref Proctor 2017)?
Answer: +VE

Question: What about the “In vivo DILI” value ([10]; ref Schadt 2015) of the same compound?
Answer: +VE

Question: What about the “In vivo DILI” value ([10]; ref Williams 2019) of the same compound?
Answer: +VE

Question: What about the “In vivo DILI” value ([10]; ref Xu 2008) of the same compound?
Answer: -VE

Question: And the THLE-Null [11]?
Answer: -VE

Question: And the THLE-Null/3A4 [11]?
Answer: -VE

Question: And the “Cluster 1-6 +VE Assay” value [12]?
Answer: +VE

Question: What about the “DILI Score (FDA) (1-8)” value [13] of the same compound?
Answer: 3

Question: What about the “Inhibition of rBsep cutoff<1& cmax u>.2” value (rBsep) of the same compound?
Answer: +VE

Question: And the “Inhibition of rBsep cutoff<3” value (rBsep)?
Answer: +VE

Question: And the AC50 (hLiMTs [14]; read-out: ATP endpoint AC50)?
Answer: 106 µM

Question: What about the minimal effective concentration (hLiMTs [14]; read-out: ATP endpoint MEC) of the same compound?
Answer: 38.1 µM

Question: And the AC50 (hLiMTs [14]; read-out: HCS endpoint AC50)?
Answer: 9.95 µM

Question: What about the minimal effective concentration (hLiMTs [14]; read-out: HCS endpoint MEC) of the same compound?
Answer: 5.35 µM

Question: And the “DILI prediction hLiMTs (HCS-MEC)” value (hLiMTs [14]; [18])?
Answer: +VE (MEC < 25 × Cmax.tot cut-off)

Question: What about the “hLiMTs <25x Avg Cmax ATP” value (hLiMTs [14]; hLiMTs, ATP endpoint, cut-off <25x Avg Cmax) of the same compound?
Answer: +ve

Question: And the “hLiMTs <100x Avg Cmaxu ATP” value (hLiMTs [14]; hLiMTs, ATP endpoint, cut-off <100x Avg Cmaxu)?
Answer: -ve

Question: What about the “hLiMTs <25x Avg Cmax HCS” value (hLiMTs [14]; hLiMTs, HCS endpoints, cut-off <25x Avg Cmax) of the same compound?
Answer: +ve

Question: And the “hLiMTs <100x Avg Cmaxu HCS” value (hLiMTs [14]; hLiMTs, HCS endpoints, cut-off <100x Avg Cmaxu)?
Answer: -ve

Question: And the “hLiMTs <25x Avg Cmax All” value (hLiMTs [14]; hLiMTs, all endpoints (ATP and HCS), cut-off <25x Avg Cmax)?
Answer: +ve

Question: And the “hLiMTs Cmax max All” value (hLiMTs [14]; hLiMTs, all endpoints, Cmax max used)?
Answer: +ve

Question: What about the “hLiMTs Cmax min All” value (hLiMTs [14]; hLiMTs, all endpoints, Cmax min used) of the same compound?
Answer: +ve

Question: And the “hLiMTs <10 uM All” value (hLiMTs [14]; hLiMTs, all endpoints, cut-off <10 uM)?
Answer: +ve (<10 uM)

Question: And the “hLiMTs <100x Avg Cmaxu All” value (hLiMTs [14]; hLiMTs, all endpoints, cut-off <100x Avg Cmaxu)?
Answer: -ve

Question: What about the “HepaRG <25x Avg Cmax ATP” value (HepaRG spheroids; HepaRG, ATP endpoint, cut-off <25x Avg Cmax) of the same compound?
Answer: +ve

Question: And the “HepaRG <100x Avg Cmaxu ATP” value (HepaRG spheroids; HepaRG, ATP endpoint, cut-off <100x Avg Cmaxu)?
Answer: -ve

Question: What about the “HepaRG <25x Avg Cmax HCS” value (HepaRG spheroids; HepaRG, HCS endpoints, cut-off <25x Avg Cmax) of the same compound?
Answer: +ve

Question: What about the “HepaRG <100x Avg Cmaxu HCS” value (HepaRG spheroids; HepaRG, HCS endpoints, cut-off <100x Avg Cmaxu) of the same compound?
Answer: -ve

Question: And the “HepaRG <25x Avg Cmax All” value (HepaRG spheroids; HepaRG, all endpoints (ATP and HCS), cut-off <25x Avg Cmax)?
Answer: +ve

Question: What about the “HepaRG Cmax max All” value (HepaRG spheroids; HepaRG, all endpoints, Cmax max used) of the same compound?
Answer: +ve

Question: What about the “HepaRG Cmax min All” value (HepaRG spheroids; HepaRG, all endpoints, Cmax min used) of the same compound?
Answer: +ve

Question: What about the “HepaRG <10 uM All” value (HepaRG spheroids; HepaRG, all endpoints, cut-off <10 uM) of the same compound?
Answer: -ve

Question: What about the “HepaRG <100x Avg Cmaxu All” value (HepaRG spheroids; HepaRG, all endpoints, cut-off <100x Avg Cmaxu) of the same compound?
Answer: -ve

Question: What about the AC50 (HepaRG spheroids; HepaRG, read-out: ATP endpoint AC50) of the same compound?
Answer: 67.5 µM

Question: What about the minimal effective concentration (HepaRG spheroids; HepaRG, read-out: ATP endpoint MEC) of the same compound?
Answer: 44.7 µM

Question: What about the AC50 (HepaRG spheroids; HepaRG, read-out: HCS endpoint AC50) of the same compound?
Answer: 93.7 µM

Question: What about the minimal effective concentration (HepaRG spheroids; HepaRG, read-out: HCS endpoint MEC) of the same compound?
Answer: 39.2 µM

Question: What about the “DILI prediction HepaRG spheroids (HCS-MEC)” value (HepaRG spheroids; [18]) of the same compound?
Answer: +VE (MEC < 25 × Cmax.tot cut-off)

Reference: publication PMC7395068, “The evolution of strategies to minimise the risk of human drug-induced liver injury (DILI) in drug discovery and development” (Archives of Toxicology, 2020)
